# Test results taken from patent publication US20230212122A1, “MITOCHONDRIAL TARGETING COMPOUNDS FOR THE TREATMENT OF ASSOCIATED DISEASES” (The Regents of the University of Michigan, priority 2020, published 2023).
# System: UM16 cell line
# Assay: GSEA of Bru-seq data (hallmark, KEGG, GO pathways, transcription factors)
# Type: cell-based
# Set-up: ES KEGG_MISMATCH_REPAIR / ES KEGG_HUNTINGTONS_DISEASE / ES KEGG_ALZHEIMERS_DISEASE / ES KEGG_VIBRIO_CHOLERAE_INFECTION / NES KEGG_VIBRIO_CHOLERAE_INFECTION / ES KEGG_RIBOSOME / NES KEGG_RIBOSOME / NES KEGG_RNA_POLYMERASE: dose or concentration left out as unconfirmed
# Excerpt: Consistent with this observation, there are also massive metabolite pathways influenced including starch and sucrose metabolism, glycolysis and gluconeogenesis, purine metabolism, pyrimidine metabolism, N-glycan biosynthesis, etc.
# [1] = 5 μM, 4 hours, transcription factors
# [2] = GO_AMIDE_BIOSYNTHETIC_PROCESS, 5 μM, 4 hours, FDR q-val 1.55E−04
# [3] = GO_CYTOSOLIC_LARGE_RIBOSOMAL_SUBUNIT, 5 μM, 4 hours, FDR q-val 0
# [4] = GO_CYTOSOLIC_PART, 5 μM, 4 hours, FDR q-val 0
# [5] = GO_CYTOSOLIC_RIBOSOME, 5 μM, 4 hours, FDR q-val 0
# [6] = GO_ESTABLISHMENT_OF_PROTEIN_LOCALIZATION_TO_ENDOPLASMIC_RETICULUM, 5 μM, 4 hours, FDR q-val 0
# [7] = GO_LARGE_RIBOSOMAL_SUBUNIT, 5 μM, 4 hours, FDR q-val 0
# [8] = GO_MATURATION_OF_SSU_RRNA, 5 μM, 4 hours, FDR q-val 6.60E−05
# [9] = GO_MULTI_ORGANISM_METABOLIC_PROCESS, 5 μM, 4 hours, FDR q-val 0
# [10] = GO_NCRNA_METABOLIC_PROCESS, 5 μM, 4 hours, FDR q-val 0
# [11] = GO_NCRNA_PROCESSING, 5 μM, 4 hours, FDR q-val 0
# [12] = GO_NUCLEAR_TRANSCRIBED_MRNA_CATABOLIC_PROCESS_NONSENSE_MEDIATED_DECAY, 5 μM, 4 hours, FDR q-val 3.62E−05
# [13] = GO_NUCLEOLAR_PART, 5 μM, 4 hours, FDR q-val 0
# [14] = GO_PEPTIDE_METABOLIC_PROCESS, 5 μM, 4 hours, FDR q-val 3.46E−05
# [15] = GO_PRERIBOSOME, 5 μM, 4 hours, FDR q-val 0
# [16] = GO_PROTEIN_LOCALIZATION_TO_ENDOPLASMIC_RETICULUM, 5 μM, 4 hours, FDR q-val 0
# [17] = GO_RIBONUCLEOPROTEIN_COMPLEX_BIOGENESIS, 5 μM, 4 hours, FDR q-val 0
# [18] = GO_RIBOSOMAL_SMALL_SUBUNIT_BIOGENESIS, 5 μM, 4 hours, FDR q-val 0
# [19] = GO_RIBOSOMAL_SUBUNIT, 5 μM, 4 hours, FDR q-val 0
# [20] = GO_RIBOSOME, 5 μM, 4 hours, FDR q-val 0
# [21] = GO_RIBOSOME_BIOGENESIS, 5 μM, 4 hours, FDR q-val 0
# [22] = GO_RRNA_BINDING, 5 μM, 4 hours, FDR q-val 0
# [23] = GO_RRNA_METABOLIC_PROCESS, 5 μM, 4 hours, FDR q-val 0
# [24] = GO_STRUCTURAL_CONSTITUENT_OF_RIBOSOME, 5 μM, 4 hours, FDR q-val 0
# [25] = GO_TRANSLATIONAL_INITIATION, 5 μM, 4 hours, FDR q-val 0
# [26] = GO_TRNA_PROCESSING, 5 μM, 4 hours, FDR q-val 3.79E−05
# [27] = transcription factor set AAAYWAACM_HFH4_01, 5 μM, 4 hours, FDR q-val 0.013
# [28] = transcription factor set AP4_Q5, 5 μM, 4 hours, FDR q-val 0.043
# [29] = transcription factor set ATF1_Q6, 5 μM, 4 hours, FDR q-val 0.053
# [30] = transcription factor set FAC1_01, 5 μM, 4 hours, FDR q-val 0.043
# [31] = transcription factor set FOXO1_01, 5 μM, 4 hours, FDR q-val 0.039
# [32] = transcription factor set FOXO3——01, 5 μM, 4 hours, FDR q-val 0.015
# [33] = transcription factor set FREAC2_01, 5 μM, 4 hours, FDR q-val 0.008
# [34] = transcription factor set HFH3_01, 5 μM, 4 hours, FDR q-val 0.042
# [35] = transcription factor set OCT_Q6, 5 μM, 4 hours, FDR q-val 0.051
# [36] = transcription factor set RTAAACA_FREAC2_01, 5 μM, 4 hours, FDR q-val 0.025
smiles,measurement,setting,value
"CCOC(=O)[C@@H]1CCCN(S(=O)(=O)c2ccc(S(=O)(=O)N(CC)CC)cc2)C1 [DX2-201, ethyl (R)-1-((4-(N,N-diethylsulfamoyl)phenyl)sulfonyl)piperidine-3-carboxylate]",ES E2F1_Q6,[1],−0.355
same,ES E2F1_Q6_01,[1],−0.352
same,ES E2F_03,[1],−0.360
same,ES E2F_Q6,[1],−0.352
same,ES GGAANCGGAANY_UNKNOWN,[1],−0.409
same,ES MYCMAX_01,[1],−0.425
same,ES MYC_Q2,[1],−0.429
same,ES NMYC_01,[1],−0.350
same,ES SGCGSSAAA_E2F1DP2_01,[1],−0.373
same,ES YY1_Q6,[1],−0.372
same,NES E2F1_Q6,[1],−1.568
same,NES E2F1_Q6_01,[1],−1.578
same,NES E2F_03,[1],−1.597
same,NES E2F_Q6,[1],−1.565
same,NES GGAANCGGAANY_UNKNOWN,[1],−1.661
same,NES MYCMAX_01,[1],−1.853
same,NES MYC_Q2,[1],−1.792
same,NES NMYC_01,[1],−1.545
same,NES SGCGSSAAA_E2F1DP2_01,[1],−1.581
same,NES YY1_Q6,[1],−1.643
same,ES KEGG_ALZHEIMERS_DISEASE,4 hours,−0.3872
same,ES KEGG_HUNTINGTONS_DISEASE,4 hours,−0.4035
same,ES KEGG_MISMATCH_REPAIR,4 hours,−0.6381
same,ES KEGG_RIBOSOME,4 hours,−0.6266
same,ES KEGG_VIBRIO_CHOLERAE_INFECTION,4 hours,−0.4430
same,NES KEGG_RIBOSOME,4 hours,−2.4526
same,NES KEGG_RNA_POLYMERASE,4 hours,−1.9613
same,NES KEGG_VIBRIO_CHOLERAE_INFECTION,4 hours,−1.4689
same,DNA repair and mismatch repair gene sets (Bru-seq),4 hours of treatment,downregulated
same,glycolysis pathway (Bru-seq),4 hours of treatment,dramatically upregulated
same,myc target gene sets and E2F target gene set (Bru-seq),4 hours of treatment,downregulated
same,oxidative phosphorylation (Bru-seq),4 hours of treatment,significantly downregulated
same,ES,[2],−0.454
same,NES,[2],−2.193
same,ES,[3],−0.629
same,NES,[3],−2.298
same,ES,[4],−0.537
same,NES,[4],−2.371
same,ES,[5],−0.626
same,NES,[5],−2.548
same,ES,[6],−0.589
same,NES,[6],−2.417
same,ES,[7],−0.585
same,NES,[7],−2.298
same,ES,[8],−0.642
same,NES,[8],−2.206
same,ES,[9],−0.557
same,NES,[9],−2.388
same,ES,[10],−0.528
same,NES,[10],−2.591
same,ES,[11],−0.594
same,NES,[11],−2.802
same,ES,[12],−0.539
same,NES,[12],−2.231
same,ES,[13],−0.630
same,NES,[13],−2.294
same,ES,[14],−0.461
same,NES,[14],−2.222
same,ES,[15],−0.648
same,NES,[15],−2.348
same,ES,[16],−0.563
same,NES,[16],−2.329
same,ES,[17],−0.552
same,NES,[17],−2.663
same,ES,[18],−0.653
same,NES,[18],−2.377
same,ES,[19],−0.581
same,NES,[19],−2.491
same,ES,[20],−0.589
same,NES,[20],−2.626
same,ES,[21],−0.616
same,NES,[21],−2.869
same,ES,[22],−0.650
same,NES,[22],−2.367
same,ES,[23],−0.604
same,NES,[23],−2.757
same,ES,[24],−0.539
same,NES,[24],−2.395
same,ES,[25],−0.590
same,NES,[25],−2.521
same,ES,[26],−0.559
same,NES,[26],−2.240
same,ES,[27],0.431
same,NES,[27],1.896
same,ES,[28],0.393
same,NES,[28],1.743
same,ES,"transcription factor set AP4_Q6, 5 μM, 4 hours, FDR q-val 0.078",0.377
same,ES,"transcription factor set AREB6_04, 5 μM, 4 hours, FDR q-val 0.098",0.346
same,ES,[29],0.383
same,NES,[29],1.701
same,ES,"transcription factor set E47_01, 5 μM, 4 hours, FDR q-val 0.060",0.363
same,ES,[30],0.394
same,NES,[30],1.751
same,ES,"transcription factor set FOXJ2_02, 5 μM, 4 hours, FDR q-val 0.090",0.364
same,ES,[31],0.384
same,NES,[31],1.732
same,ES,"transcription factor set FOXO1_02, 5 μM, 4 hours, FDR q-val 0.007",0.459
same,ES,[32],0.417
same,NES,[32],1.860
same,ES,"transcription factor set FOXO4_01, 5 μM, 4 hours, FDR q-val 0.014",0.464
same,ES,"transcription factor set FOXO4_02, 5 μM, 4 hours, FDR q-val 0.007",0.454
same,ES,[33],0.440
same,NES,[33],1.964
same,ES,"transcription factor set FREAC3_01, 5 μM, 4 hours, FDR q-val 0.058",0.375
same,ES,[34],0.401
same,NES,[34],1.733
same,ES,"transcription factor set HNF3_Q6, 5 μM, 4 hours, FDR q-val 0.073",0.392
same,ES,"transcription factor set NKX62_Q2, 5 μM, 4 hours, FDR q-val 0.058",0.387
same,ES,"transcription factor set OCT1_Q5_01, 5 μM, 4 hours, FDR q-val 0.094",0.357
same,ES,[35],0.381
same,NES,[35],1.697
same,ES,"transcription factor set PAX2_02, 5 μM, 4 hours, FDR q-val 0.061",0.374
same,ES,[36],0.344
same,NES,[36],1.816
same,ES,"transcription factor set RYCACNNRNNRNCAG_UNKNOWN, 5 μM, 4 hours, FDR q-val 0.075",0.462
same,ES,"transcription factor set TTANWNANTGGM_UNKNOWN, 5 μM, 4 hours, FDR q-val 0.051",0.511
same,ES,"transcription factor set YWATTWNNRGCT_UNKNOWN, 5 μM, 4 hours, FDR q-val 0.059",0.482
